From patent US20080274090A1, “REVERSAL OF INSULIN-DEPENDENT DIABETES BY ISLET-PRODUCING STEM CELLS, ISLET PROGENITOR CELLS AND ISLET-LIKE STRUCTURES” (UNIVERSITY OF FLORIDA RESEARCH FOUNDATION, INC., priority 2000, published 2008)
No end group written: not given here.

What was measured:
[1] = tested on: IdIs derived from NOD/Uf pancreatic IPSCs; assay: Insulin content and secretion of cultured IdIs upon glucose stimulation (insulin ELISA); type: cell-based, mouse; conditions: for insulin release from IdIs by secretagogues: 10 mM arginine or 1 nM GLP-1 with 17.5 mM glucose, final 3 hours, lesser degree than nicotinamide
Protocol: To determine insulin secretion, 300 IdIs derived from NOD/Uf pancreatic IPSCs were cultured in vitro for 5 days in EHAA medium containing either 0.5% NMS or prediabetic NOD mouse serum with or without nicotinamide (1-10 mM). At the end of the culture period, cells were washed twice in Krebs ringer buffer (KRB) and stimulated with 17.5 mM glucose in KRB for 3 hours.
Three hundred IdIs (from culture flasks containing EHAA-0.5% NMS medium) were seeded in 24 well plates in 2 ml of EHAA medium containing 0.5% of NMS with or without nicotinamide (1-10 mM) for 5 days at 37° C. (5% CO2). For secretagogues, IdIs were cultured in EHAA-0.5% NMS medium for 5 days. Three hours prior to the end of the incubation period, medium was removed and IdIs gently washed twice with KRB. To stimulate insulin secretion, 17.5 mM glucose was added to wells in 1 ml of KRB, and incubated at 37° C. for 3 hrs. Following incubation, culture supernatants were stored at −70° C. until use. The IdIs in each well were then subjected to 1 ml of ice-cold acid-ethanol extraction overnight at 4° C., and cell-free extracts were neutralized with Tris base (400 mM final concentration) prior to storing at −70° C. until use. To test the effect of secretagogues, 10 mM arginine and 1 nM GLP-1 (Sigma Chemicals, St Louis, Mo.) were used for the final 3 hours incubation in KRB. The insulin in the supernatants and in the extract were determined using an insulin ELISA kit (Crystal Chemical Inc., Chicago, Ill.), with rat insulin standard for quantitation (supplied in the kit). Comparisons between groups were done using the one tailed t-test.

IPSC line #7 = assay: Expression of development/differentiation factors in IPSC line #7 under nicotinamide; type: cell-based, mouse
Protocol: Nicotinamide has also been determined to enhance expression of various factors involved in the development/differentiation of the pancreas. […] A differentially regulated expression of Ins I and II was also apparent: Ins I was expressed at lower concentrations of nicotinamide (1-20 mM), while Ins II was expressed at 20-40 mM nicotinamide. Glucagon expression was visible only at a low dose of nicotinamide (<10 mM), while amylase expression was maintained at all doses (0-40 mM) (data not shown).

human cell line (#H3) = assay: Differentiation of human IPSCs with nicotinamide and ECM (immunohistochemical staining); type: cell-based; conditions: upon treatment with nicotinamide
Excerpt: Several lines were derived from human pancreatic ductal preparation provided by DRI (Miami, Fla.). […] Only about 2% of the cells express insulin (FIG. 16M). None of the cells express tyrosine hydroxylase (FIG. 16G).

| Compound | differentiation of IPCs to IdIs ([1]; in combination with epidermal growth factor or hepatocyte growth factor, data not shown) | insulin content of IdIs ([1]; nicotinamide 1-10 mM for 5 days, then 17.5 mM glucose 3 hours, versus glucose alone) | insulin secretion of IdIs ([1]; nicotinamide 1-10 mM for 5 days, then 17.5 mM glucose 3 hours, versus glucose alone, P<0.05) | nicotinamide concentration at which Ins I was expressed (IPSC line #7; IPSC line #7) | nicotinamide concentration at which Ins II was expressed (IPSC line #7; IPSC line #7) | nicotinamide dose at which glucagon expression was visible (IPSC line #7; IPSC line #7, data not shown) | nicotinamide doses at which amylase expression was maintained (IPSC line #7; IPSC line #7, data not shown) | expression of development/differentiation factors (IPSC line #7; at different doses, data not shown) | cells expressing insulin (human cell line (#H3)) | cells expressing tyrosine hydroxylase (human cell line (#H3)) | expression of pancreatic products (human cell line (#H3)) | insulin release from IdIs by secretagogues [1] |
| --- | --- | --- | --- | --- | --- | --- | --- | --- | --- | --- | --- | --- |
| NC(=O)c1cccnc1 [nicotinamide] | induced the differentiation of IPCs to IdIs | increased insulin content | significantly increased levels of insulin | 1 to 20 mM | 20 to 40 mM | < 10 mM | 0 to 40 mM | enhancement of Isl-1, beta2/neuroD, IPF-1, Nkx 2.2 and 6.1 | about 2% | None | express glucagon (FIG. 16K), amylase (FIG. 16I), cytokeratin 7 (FIG. 16C), and cytokeratin 19 (FIG. 16E) | – |
| glucagon like peptide-1 (HAEGTFTSDVSSYLEGQAAKEFIAWLVKGR; ends and bridges not checked; UniProt P01275 98-127, looked up) [GLP-1, secretagogue stimulating β cells through elevation of cAMP and the protein kinase A pathway] | – | – | – | – | – | – | – | – | – | – | – | induced insulin release |
| N=C(N)NCCC[C@H](N)C(=O)O [arginine] | – | – | – | – | – | – | – | – | – | – | – | induced insulin release |
